Laboratory results reported in patent US10145848B2, “Small-molecule hydrophobic tagging of fusion proteins and induced degradation of same” (YALE UNIVERSITY, priority 2010, dated 2018).
“Also recorded” adds a separate entry of the source.

Columns and labels:
EGFP-HaloTag = target: T1, EGFP-HaloTag (Rhodococcus rhodochrous, UniProt P0A3G2, C176G/H272F/K175M/Y273L); assay: Flow cytometry of intracellular GFP fluorescence in HeLa cells expressing EGFP-HaloTag; format: cell-based; conditions: 1 μM, 24 hours
T1 construct: The HaloTag protein was obtained from pHT2 vector (Promega); expressed in transfected cells
Experimental: Stable HeLa cells were raised by cotransfection of pCS2/EGFP-HaloTag and p-Puro containing the puromycin resistance gene. A clonal population of cells expressing EGFP-HaloTag was isolated. These cells were treated with vehicle or 1 μM HyT13 for 24 hours, washed with PBS and trypsinized. The cells were resuspended in FBS-free DMEM and the intracellular GFP level was measured by FACSCalibur (BD Biosciences).
(§1) As the luciferase assay relied on the loss-of-activity of the luciferase-HaloTag fusion protein, we wanted to determine whether the decrease in luciferase activity resulted from the degradation of the entire fusion protein or perhaps simply inhibition of luciferase activity. We generated a stable Flp-In 293 cell line with a single integration site containing HA-EGFP-HaloTag fusion protein, and employed this cell line to perform kinetic studies with HyT13. […] Consistent with our previous observations, treatment of these cells with 1 μM of HyT13 for 24 hours reduced the mean fluorescence intensity of cells almost 7-fold. Together, these findings provide the first experimental evidence that hydrophobic tagging represents a viable strategy for the control of protein levels.

[1] = Maximum tolerated dose experiment / weight gain in nude mice; format: in vivo
Excerpt: Nude mice were daily IP injected with indicated concentrations of HyT13 and were monitored for weight gain during the 14-day experiment. Shown is the percent weight gained during the 14-day period for each treatment group ±SEM. Each treatment group consisted of 7 mice.
To examine whether the HaloTag:HyT13 based system could be used in mouse models to relieve the H-RasG12V-driven tumor burden, we first evaluated the pharmacokinetics of HyT13. We performed a maximum tolerated dose experiment with HyT13 in nude mice at doses up to 100 mg/kg over a 14-day treatment regimen. […] Next, we sought to determine the serum bioavailability of HyT13 following injections. HyT13 was administered at 25 mg/kg by intraperitoneal (IP) injection into Swiss Webster mice and the serum was collected at 1 and 24 hours post-injection. At 1 hour post HyT13 administration the blood serum concentration was approximately 2 μM, and by 24 hours the HyT13 concentration had dropped to about 500 nM (FIG. 10). Based on our previous experiments in a cell culture setting, we speculated that these serum HyT13 concentrations would be sufficient to suppress H-RasG12V tumor formation in mice. To test this, we injected NIH-3T3 cells expressing HA-HaloTag-H-RasG12V into the flank of nude mice and on the same day started a daily treatment regimen of vehicle, 25 mg/kg HyT13 or 100 mg/kg HyT13. […]

HEK293 or HeLa cells = assay: Cell viability with Resazurin (alamarBlue); format: cell-based; conditions: up to 20 μM, 24 hours
Experimental: HEK293 or HeLa cells were treated with indicated concentrations of HyT13 for 24 hours. The oxidation-reduction indicator Resazurin (alamarBlue, Invitrogen) was employed to determine cell viability.

[2] = target: T2, HA-EGFP-HaloTag fusion protein (Rhodococcus rhodochrous, UniProt P0A3G2, C176G/H272F/K175M/Y273L); assay: Immunoblotting of HA-EGFP-HaloTag in Flp-In 293 cells; format: cell-based
T2 construct: The HaloTag protein was obtained from pHT2 vector (Promega); expressed in transfected cells
Experimental: Flp-In 293 cells expressing HA-EGFP-HaloTag were treated with indicated concentrations of HyT13 for 24 hours. The lysates were probed with anti-HA and anti-β-actin antibodies, with β-actin serving as a loading control. Shown is quantification of three separate experiments, with error bars representing SEM.
Flp-In 293 cells expressing HA-EGFP-HaloTag cells were treated for the indicated times with 1 μM HyT13 and the lysates were probed with anti-HA and anti-β-actin antibodies. The rightmost sample was treated with HyT13 for 24 hours, after which HyT13-free media was provided for 24 hours. Shown is quantification of three separate experiments, with error bars representing SEM.
The indicated cells were washed twice with cold PBS and the cells were lysed in lysis buffer (1×PBS, 1% NP-40, 1 mM EDTA, 40 mM HEPES) with protease inhibitors. The lysates were cleared by centrifugation at 10,000 g for 5 min. The total protein concentration was determined by Bradford assay and 50 μg of protein was loaded onto an 8% Bis-Tris gel. To solubilize polyubiquitinated and aggregated proteins upon proteasome inhibition^42 samples generated for FIG. 12d were lysed with a SDS lysis buffer (1×PBS, 1% NP-40, 1% SDS, 1% sodium deoxycholate, 1 mM EDTA, 40 mM HEPES) with protease inhibitors. The blots were processed by standard procedures with indicated antibodies, and the band intensities were quantified by ImageJ.
as §1

[3] = system: transmembrane HA-HaloTag fusion proteins (Ror2, CD3E, CD9, GPR40, Frizzled-4); assay: Immunoblotting of transmembrane HA-HaloTag fusion proteins in HEK 293T cells; format: cell-based; conditions: 1 μM, 24 hours
HA-HaloTag-Smad5 = target: T3, HA-HaloTag-Smad5 (Rhodococcus rhodochrous, UniProt P0A3G2, C176G/H272F/K175M/Y273L); assay: Zebrafish embryo HA-HaloTag-Smad5 degradation (immunoblot); format: in vivo, Danio rerio; conditions: 10 μM, 24 hours
T3 construct: The HaloTag protein was obtained from pHT2 vector (Promega); Danio rerio Smad5 (fusion partner); expressed in transfected cells; host or cells: zebrafish (TLF line) embryos injected with in vitro transcribed cRNA at the one-cell stage
Experimental: The wild-type fish line TLF was used for this study. The HA-HaloTag-Smad5 in pCS2+ plasmid was in vitro transcribed with the SP6 transcription kit (Ambion). The mRNA was injected at 100 ng/μL at the one cell stage and embryos were raised to the 256-cell stage, when they were moved to glass depression slides (10-per-well) and put in 1 ml E2 media with or without HyT13 (10 μM). Embryos were cultured at 28.6° C. for 24 hours and then dechorionated and de-yolked as described^43. Approximately 60 embryos per condition were collected for immunoblot analysis, as described above.
We also explored the possibility of employing the hydrophobic tagging system in the zebrafish Danio rerio. We injected HA-HaloTag-Smad5 cRNA into zebrafish embryos and then treated the embryos with either vehicle or HyT13.

For `O=C(CC12CC3CC(CC(C3)C1)C2)NCCOCCOCCCCCCCl` [HyT13, 2-((3r,5r,7r)-Adamantan-1-yl)-N-(2-(2-((6-chlorohexyl)oxy)ethoxy)ethyl)acetamide], the “reduction of mean fluorescence intensity” value (EGFP-HaloTag) was about 7 fold, the weight gain ([1]; mice injected daily at 100 mg/kg for 14 days) was “gained weight normally” and the “toxicity / phenotype in mice” value ([1]; nude mice, daily IP, doses up to 100 mg/kg, 14 days) was “No obvious phenotype was observed; also recorded: no observed toxicity”. The cellular toxicity (HEK293 or HeLa cells) was “No cellular toxicity was observed; also recorded: lack of noticeable HyT13 cytotoxicity; also recorded: exhibits no toxicity”, the “time to 50% degradation” value ([2]; 1 μM HyT13) was at most 1.5 h and the “time to full degradation effect” value ([2]; 1 μM HyT13) was at most 8 h. For the same molecule, the “protein level after removal of compound” value ([2]; 1 μM for 24 hours, then removed for 24 hours) was “recovered to half the starting levels”, the “concentration at which maximal degradation effect is achieved” value ([2]; 24 hours, immunoblotting) was 100 nM and the DC50 ([2]; read-out: IC50 of fusion protein degradation, 24 hours, Flp-In 293 cells) was 0.021 µM. For the same molecule, the “degradation of transmembrane HaloTag fusion proteins” value [3] was “efficiently induced their degradation” and the “degradation of fusion protein in zebrafish embryos” value (HA-HaloTag-Smad5) was “very efficiently degraded”.
